From the METLIN SMRT retention time set (Domingo-Almenara et al. 2019)

Assay: gradient 5% acetonitrile 3 min, to 50% in 2 min, to 85% in 15 min, held 3 min, 100 µL/min
Settings: column: Zorbax Extend-C18 2.1 x 50 mm; eluents: water / acetonitrile, 0.1% formic acid
Method in brief: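 The system's dead and dwell volumes were 40 μL and 900 μL, with a Zorbax Extend-C18 column (2.1 × 50 mm, 1.8 μm) run at 100 μL/min in water and acetonitrile containing 0.1% formic acid each. Pure standards were analyzed in mixtures of ~100 molecules by HPLC–quadrupole time-of-flight mass spectrometry in positive and negative ionization mode. Retention time was assigned from computationally picked, manually inspected adduct peaks.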

SMILES | RP-LC retention time [s]
Cc1cc(S(=O)(=O)N2CCc3nn(C)c(=O)n3CC2)ccc1Cl | 744
CCOc1ccc(NC(=O)N2CCC3(C2)C(=O)Nc2ccc(OC)cc23)cc1 (configuration not stated) | 731
Cc1ccc(C(=O)NCc2nc(-c3ccc4c(c3)ncn4C3CCCC3)no2)cc1 | 719
CC(=O)N1CCc2cc(N3CC(C(=O)N(C)Cc4ccccc4)CC3=O)ccc21 (configuration not stated) | 697
CCCCn1cc(S(=O)(=O)Nc2ccccc2)c2cccnc21 | 937
CCn1c(SC)nnc1-c1nn(C)c2c1CN(C(C)=O)CC2 | 664
O=c1c2cc(-c3ccc(F)cc3)nn2ccn1Cc1noc(CN2CCCCC2)n1 | 656
CC(n1cc(C[C@H](N)C(=O)O)c2ccccc21)n1cc(C[C@H](N)C(=O)O)c2ccccc21 | 628
Cc1nc(Cn2cccc2C(=O)Nc2cccc(Br)c2)no1 | 936
CCC(=O)N1CCc2cc(N3CC(C(=O)NCc4cccs4)CC3=O)ccc21 (configuration not stated) | 695
CC(CCc1ccccc1)NC(=O)C1CN(C(=O)c2cccs2)C1 (configuration not stated) | 727
CCc1cnc2c(c1SCC(=O)N(C)c1ccccc1)c(=O)n(C)c(=O)n2C | 800
CSc1cccc(-n2ccc(=O)c(-c3nc(-c4ccccc4)no3)n2)c1 | 971
CC(=O)N1CCc2cc(S(=O)(=O)C(C)CC(=O)N3CCN(c4ccc(Cl)cc4)CC3)ccc21 (configuration not stated) | 870
CCS(=O)(=O)NCc1ccc2c(c1)CCN2C(=O)c1ccc(Cl)cc1 | 829
CCCCNC(=O)Cc1c(OC)ccc2cc(Br)ccc12 | 947
O=C1CN(S(=O)(=O)c2ccccc2C(F)(F)F)CC2(CCCCC2)N1C1CCCC1 | 1230
CCn1nccc1-c1cccc(-c2noc(-c3ccc(F)cc3)n2)c1 | 1240
Cn1c(=O)n(CC(=O)Nc2ccc(F)cc2F)c(=O)c2cnc(-c3ccccc3)nc21 | 1000
Cc1cc2c(c(C#N)c1C)NC=NC2C (configuration not stated) | 641
Nc1nc2c(cnn2CCc2ccccc2)c2nc(-c3ccco3)nn12 | 880
Cn1c(C(=O)N2CCN(c3ccccn3)CC2)c(N2CCCC2=O)c2cc(F)ccc21 | 635
COc1ccc(C2C(C(=O)NCCN(C)C)c3ccccc3C(=O)N2C)cc1OC (configuration not stated) | 700
O=C(NCC1CCS(=O)(=O)C1)c1cc(-c2ccc(F)cc2)n[nH]1 (configuration not stated) | 643
CSc1ccc(-c2nc3ccc(C)cn3c2Nc2ccc3c(c2)OCO3)cc1 | 739
Cc1c(C(=O)NCCOc2cccc(C(F)(F)F)c2)cccc1[N+](=O)[O-] | 893
CCCn1ccc2sc(C)c(C(=O)N3CCN(c4ccc(F)cc4)CC3)c2c1=O | 872
COCCOC(=O)c1c(C)oc2ccc(OC(=O)N(C)C)cc12 | 830
COC(=O)COc1cc(-c2ccccc2)nc2ccc(NS(=O)(=O)c3ccccc3)cc12 | 774
Cn1nc(C(=O)N2CCCCC2)c2c1CCN(C(=O)CCC(=O)NCCCN1CCCC1)C2 | 579

More lines, now with the values ahead:

RP-LC retention time [s] | SMILES
599 | O=C(NCCN1CCOCC1)c1cccc(Nc2c(-c3ccc(Cl)cc3)nc3cnccn23)c1
688 | CC1CCN(C(=O)CCC(=O)N2CCN(c3nc4cccnc4s3)CC2)CC1
1030 | O=S(=O)(NC1CCCCCCC1)c1ccc2c(c1)-c1oncc1CO2
703 | COc1ccc(-c2coc3cc(OCC(=O)O)ccc3c2=O)cc1OC
1020 | O=C(NCc1nc(-c2ccc(N3CCCCCC3)cc2)no1)c1ccco1
825 | Cc1cc(C)cc(C(=O)N2CCC(n3c(-c4ccco4)nc4cccnc43)C2)c1 (configuration not stated)
752 | COc1ccc(OC)c(NC(=O)c2ccc(-n3cnc(NC(=O)C4CC4)c3)cc2)c1
851 | CCCC(=O)N1CCN(c2ccc(=O)n(-c3ccc(C(C)C)cc3)n2)CC1
938 | O=c1n(Cc2cccc(C(F)(F)F)c2)nc2ccc(S(=O)(=O)N3CCCC3)cn12
562 | CCOc1cccc(CN2CC[C@@](C)(O)[C@H](N3CCCC3)C2)c1
1130 | CCOC(=O)c1noc2nc(C)nc(NCCc3ccc(C)cc3)c12
614 | O=C(NC1CCCC1)c1ccn[nH]1
1080 | Cc1noc(C)c1-c1ccc(S(=O)(=O)N2CCN(c3ccccc3)CC2)cc1
958 | O=C(Cn1ccc2ccc(N3CCOCC3)nc21)NCc1ccc(C(F)(F)F)cc1
575 | CCc1ccccc1NC(=O)N1CCc2nc[nH]c2C1
838 | COC(=O)c1ccc(NC(=O)Cc2csc(Nc3ccc(F)cc3)n2)cc1
779 | CCOc1ccccc1CNC(=O)C1CCN(S(=O)(=O)c2cn(C(C)C)cn2)CC1
652 | CN(C)C[C@@H]1CN(c2ccncn2)C[C@H]1NC(=O)c1ccc2ncccc2c1
1240 | CCCN(C(=O)CC(=O)OC)c1nc(-c2ccc(Br)cc2)cs1

RP-LC retention time [s] | SMILES
652 | O=C1CCN(C(=O)c2ccsc2)CCCCCCN1
1050 | Cc1nc(-c2cc(S(=O)(=O)Nc3cccc(Br)c3)c(C)s2)cs1
616 | COc1ccc(CNC(=O)Cc2cn(C)c3ncccc23)cc1OC
609 | COc1ccc(C(=O)N2CCN(c3cc(C(C)C)n4cnnc4n3)CC2)c(OC)c1
904 | CCCn1cc(CCNS(=O)(=O)c2ccccc2C(F)(F)F)c2cccnc21
952 | O=C(Cc1csc2nc(-c3cccc(Br)c3)cn12)NC1CCCCC1
805 | COc1cc(NS(=O)(=O)c2ccc3c(c2)-c2oncc2CO3)cc(OC)c1OC
991 | Cc1ccccc1NC(=O)C1C(=O)N(C)C2(C)CC1c1ccccc1O2 (configuration not stated)
1240 | Cc1cc(C)n(-c2ncnc3c2cnn3Cc2ccccc2)n1
628 | CCc1nncn1C1CCN(C(=O)c2cc(F)ccc2Cl)CC1
930 | O=C(C1=CN(c2ccccc2)c2cc(Cl)ccc2S1(=O)=O)N1CCCCC1
633 | Cc1cnc(-c2ccncc2)n1CCNS(=O)(=O)c1ccc2c(c1)CCC2
933 | Cc1ccc2oc(C(=O)Nc3ccc(-n4cnnn4)cc3)c(C)c2c1
1200 | CCCCOc1ccc(-c2ccc(=O)n(Cc3nc(-c4cc(OC)c(OC)c(OC)c4)no3)n2)cc1
802 | CCc1noc(NC(C)=O)c1-c1ccc(OC)c(S(=O)(=O)NCc2ccc(C)cc2)c1
798 | CCOc1ccc(S(=O)(=O)N2CC(F)(F)C[C@H]2CN2CCc3ccccc3C2)cc1
957 | CCOC(=O)c1nc(Nc2ccc(Cl)cc2)c2ccccc2n1
1060 | Cc1nc(-c2csc(S(=O)(=O)N3CCC(C(=O)NCCc4ccccc4)CC3)c2)no1
